Publication PMC4922569, “Antifibrotic Effects of the Dual CCR2/CCR5 Antagonist Cenicriviroc in Animal Models of Liver and Kidney Fibrosis” (PLoS ONE, 2016)
Structures can show the parent of a compound that is named as a salt.

How the values were obtained:
[1] = CVC plasma levels in the TG-induced model of peritonitis (LC/MS/MS); type: in vivo; conditions: male, C57BL/6, mouse, oral, 20 mg/kg/day, CVC20 QD, n = 5, 26 hours post-dose, read-out: CVC trough plasma level
Procedure: Male C57BL/6 mice (n = 44; 8–10 weeks of age; Charles River Laboratories, Canada) were allocated to receive treatments via oral gavage (PO) on Days 1–5 in the following groups: non-disease control, vehicle control twice daily (BID), CVC 5 mg/kg/day (CVC5) BID, CVC 20 mg/kg/day (CVC20) BID, CVC 100 mg/kg/day (CVC100) BID, CVC20 QD, and positive control dexamethasone (corticosteroid known to reduce inflammation in a variety of animal models) 1 mg/kg QD (S1 Table). On Day 4, peritonitis was induced via IP injection of TG 3.85% (1 mL/animal) 2 hours post-dose in all groups except non-disease controls. Study endpoints included: peritoneal lavage cell counts and pharmacokinetic (PK) evaluation. Animals were sacrificed 48 hours post-TG injection by isoflurane inhalation, and peritoneal lavage and blood samples (0.7 mL) were collected. Differential cell counts were assessed in peritoneal lavage samples using an Advia® Hematology System (Siemens Healthcare Diagnostics, USA) with multispecies software and an analysis software designed for mouse peritoneal fluid on Advia® 120 (LabThruPut, USA). A 0.3 mL aliquot of the blood sample was processed to plasma for PK analysis.
CVC plasma levels (minimum and maximum) were determined by KCAS Bioanalytical Services, USA, using a validated liquid chromatography-tandem mass spectrometry (LC/MS/MS) plasma method (50 μL assay, range 10.0−1920.0 ng/mL).

[2] = tested on: MCD-induced NASH; conditions: cited from earlier work
[3] = tested on: CCR5 on CD4+ and CD8+ T-cells; parameters: method as in earlier work; conditions: human PBMC ex vivo, cited from earlier work

CCCCOCCOc1ccc(-c2ccc3c(c2)/C=C(/C(=O)Nc2ccc([S@@+]([O-])Cc4cncn4CCC)cc2)CCCN3CC(C)C)cc1 [CVC, cenicriviroc mesylate]
concentration at 26 h [1]: 25.7 ± 8.1 ng/mL
Infiltration of Ly6Chi monocyte-derived macrophages into the liver ([2]; MCD model, preliminary data): significantly decreased
Hepatic fibrosis (Sirius red staining and hydroxyproline content) ([2]; chronic MCD model of NASH): reduced
Steatohepatitis, assessed by histological NAFLD activity score ([2]; chronic MCD model of NASH): significantly ameliorated
Receptor occupancy for CCR5 on CD8+ T-cells ([3]; at 2.3 nmol/L): ≥ 90%
Receptor occupancy for CCR5 on CD4+ T-cells ([3]; at 3.1 nmol/L): ≥ 90%
